Reference: US5070210A, “Novel ketenimines as intermediates for insecticides” (ICI Americas Inc., priority 1990, dated 1991)

Experiments:
Type in all cases: in vivo
[1] = system: Tobacco Budworm [Heliothis virescens (Fabricius)] eggs; assay: Tobacco budworm egg test; details: 2-day old eggs, percent in solution
In short: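 Paper towel patches bearing 2-day old eggs were dipped in acetone solutions of compound, then set in petri dishes over larval rearing medium at 78° F. Mortality was scored once all control eggs had hatched and larvae were feeding. LC50, from dosage-mortality curves, is given as percent compound in solution.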

[2] = system: Housefly [Musca domestica]; assay: Housefly insecticidal test; details: μg per 25 female flies; mortality after 48 hours
In short: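 LC50 (μg compound per 25 female flies) derives from dosage-mortality curves of 48 h kill. Flies, females 1-2 days old, were held 25 per cage over a dish coated with dried acetone deposit, starting at 100 μg per cage and descending.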

[3] = system: Cabbage Looper [Trichoplusia ni (Hubner)]; assay: Cabbage looper insecticidal test; details: second-instar larvae, percent in solution; 3-5 days
In short: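 Compounds in 50-50 acetone-water were applied by dipping squash cotyledons (about 1×1.5 in) for 2-3 s; dried leaves went into petri dishes on moist filter paper with 5 second-instar larvae under high humidity. Mortality was scored after 3-5 days; LC50 from dosage-mortality curves, as percent compound in solution.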

[4] = system: Maize weevil [Sitophilus Zeamais (Motschulsky)]; assay: Maize weevil insecticidal test; details: adult weevils, percent in solution; 48 hours
Procedure: The compounds in Tables 1 and 2 above were tested for insecticidal activity using the following testing procedures. LC50 values, based on the results of these tests and calculated according to dosage-mortality curves, are expressed in Table 3.
Maize weevil [Sitophilus Zeamais (Motschulsky)]:
Test compounds were diluted in a 50:50 acetone:water solution. Four corn seeds [Zea mays (L.)] which had been immersed in test solutions for 2-3 seconds and allowed to dry were placed in containers together with 10 adult weevils. The containers were covered and kept at a temperature of about 25° C. Mortality was recorded after 48 hours. Test concentrations ranged from 0.01% down to that at which 50% mortalilty occurred. The LC50 values are expressed below in Table 3 under the heading "MW" in terms of percent of the test compound in solution.

Row | Structure (SMILES) | LC50, TBW, E (TBW-E) [1] [%] | LC50, HF [2] [µg] | LC50, CL [3] [%] | LC50, MW [4] [%]
1 | COc1ccc(N=C(OCc2ccc(F)c(Oc3ccc(F)cc3)c2)C(C)C)cc1Cl [Compound 408] | 0.02 | < 100 | 0.0015 | > 0.01
2 | CCOc1ccc(N=C(OCc2cccc(Oc3ccccc3)c2)C(C)C)cc1 [Compound 371] | > 0.1 | < 100 | 0.0022 | > 0.01
3 | C=C(C)C(=Nc1ccc(C(F)(F)F)cc1)OCc1cccc(Oc2ccccc2)c1 [Compound 430] | 0.032 | < 100 | 0.001 | 0.004
4 | CC(C)C(=Nc1ccc(C(F)(F)F)cc1)OCc1cccc(Oc2ccccc2)n1 [Compound 504] | 0.05 | < 100 | 0.00025 | 0.01
5 | CC(C)C(=Nc1ccc(Br)c(F)c1)OCc1cccc(Oc2ccc(Cl)cc2)n1 [Compound 551] | 0.035 | < 100 | 0.00075 | > 0.01
6 | CC(C)C(=Nc1cccc(F)c1)OCc1ccc(F)c(Oc2ccc(F)cc2)c1 [Compound 342] | 0.04 | 4.1 | 0.0008 | > 0.01
7 | Cc1cc(N=C(OCc2ccc(F)c(Oc3ccc(F)cc3)c2)C(C)C)ccc1F [Compound 396] | < 0.1 | < 100 | 0.0017 | > 0.01
8 | CCOc1ccc(N=C(OCc2cccc(Oc3ccc(F)cc3)c2)C(C)C)cc1Br [Compound 446] | < 0.1 | > 100 | 0.0008 | > 0.01
9 | CC(C)C(=Nc1ccc(F)c(Cl)c1)OCc1cccc(Oc2c(F)c(F)c(F)c(F)c2F)c1 [Compound 460] | > 0.1 | > 100 | 0.02 | > 0.01
10 | CCOc1ccc(N=C(OCc2ccc(F)c(Oc3ccccc3)c2)C(C)C)cc1F [Compound 439] | > 0.1 | > 100 | 0.00045 | > 0.01
11 | Cc1cc(N=C(OCc2ccc(F)c(Oc3ccc(Cl)cc3)c2)C(C)C)ccc1Br [Compound 407] | 0.05 | > 100 | > 0.1 | > 0.01
12 | C=C(C)C(=Nc1ccc(F)c(Cl)c1)OCc1cccc(Oc2ccccc2)c1 [Compound 417] | 0.04 | < 100 | 0.0008 | > 0.01
13 | COCc1c(F)c(F)c(COC(=Nc2cccc(C(F)(F)F)c2)C(C)C)c(F)c1F [Compound 503] | 0.08 | 21 | 0.001 | > 0.01
14 | CCc1ccccc1N=C(OCc1cccc(Oc2ccc(F)cc2)c1)C(C)C [Compound 411] | > 0.1 | < 100 | > 0.1 | > 0.01
15 | CC(C)C(=Nc1ccc(Cl)c(C(F)(F)F)c1)OCc1ccc(F)c(Oc2ccccc2)c1 [Compound 388] | > 0.1 | < 100 | 0.0012 | > 0.01
16 | C=C(C)C(=Nc1ccc(F)c(Cl)c1)OCc1ccc(F)c(Oc2ccccc2)c1 [Compound 416] | 0.018 | < 100 | 0.00027 | > 0.01
17 | CC(C)C(=Nc1ccc(C#N)cc1)OCc1ccc(F)c(Oc2ccc(F)cc2)c1 [Compound 394] | 0.05 | < 100 | 0.00025 | > 0.01
